Reference: patent publication US5210193A, “Piperazine derivatives” (American Cyanamid Company, priority 1990, dated 1993)
≈ marks a conversion by molar mass, not a printed value. Where “and” joins values, the source holds several entries; their conditions need not be identical. Identical values can stand only once. Like-named read-outs stand apart in the source and are kept apart here.

Columns and labels:
Test in all cases: in vitro antibacterial MIC, agar plate dilution
Assay type in all cases: cell-based
Citrobacter div. K 82-24 = conditions: Citrobacter, DIV.K8224, 18 h, 35° C., read-out: MIC
How it was run: (§1)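 MIC, mcg/ml: lowest concentration with no visible growth after 18 h incubation at 35° C. Mueller-Hinton agar dilution plates; ~10^4 CFU inoculum via Steers replicating device.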

[1] = system: Enterobacter cloacae K 84-10; conditions: Enterobacter cloacae, K8410, 18 h, 35° C., read-out: MIC
How it was run: as §1

[2] = system: Enterobacter cloacae VGH 84-39; conditions: Enterobacter cloacae, VGH8439, 18 h, 35° C., read-out: MIC
How it was run: as §1

[3] = system: Escherichia coli ATCC 25922; conditions: 35° C.
How it was run: as §1

[4] = system: Escherichia coli CMC 84-11; conditions: Escherichia coli, CMC8411, 18 h, 35° C., read-out: MIC
How it was run: as §1

[5] = system: Escherichia coli CMC 84-50; conditions: Escherichia coli, CMC8450, 18 h, 35° C., read-out: MIC
How it was run: as §1

Escherichia coli LL 311 = conditions: Escherichia coli, LL311, 18 h, 35° C., read-out: MIC
How it was run: as §1

[6] = system: Escherichia coli MOR 84-20; conditions: Escherichia coli, MOR8420, 18 h, 35° C., read-out: MIC
How it was run: as §1

[7] = system: Escherichia coli VGH 84-19; conditions: Escherichia coli, VGH8419, 18 h, 35° C., read-out: MIC
How it was run: as §1

[8] = system: Klebsiella pneumoniae IO 83-5; conditions: Klebsiella pneumoniae, IO835, 18 h, 35° C., read-out: MIC
How it was run: as §1

[9] = system: Klebsiella pneumoniae MOR 84-24; conditions: Klebsiella pneumoniae, MOR8424, 18 h, 35° C., read-out: MIC
How it was run: as §1

[10] = system: Morganella morganii CMC 84-37; conditions: 35° C.
How it was run: as §1

[11] = system: Morganella morganii CMC 84-38; conditions: 35° C.
How it was run: as §1

[12] = system: Morganella morganii MOR 84-45; conditions: Morganella morganii, MOR8445, 18 h, 35° C., read-out: MIC
How it was run: as §1

[13] = system: Proteus rettgeri CMC 84-41; conditions: Providencia rettgeri, CMC8441, 18 h, 35° C., read-out: MIC
How it was run: as §1

[14] = system: Proteus rettgeri IO 83-21; conditions: Providencia rettgeri, IO8321, 18 h, 35° C., read-out: MIC
How it was run: as §1

[15] = system: Providencia stuarti CMC 83-3; conditions: Providencia, CMC833, 18 h, 35° C., read-out: MIC
How it was run: as §1

[16] = system: Pseudomonas aeruginosa K 84-16; conditions: Pseudomonas aeruginosa, K8416, 18 h, 35° C., read-out: MIC
How it was run: as §1

[17] = system: Pseudomonas aeruginosa VGH 84-3; conditions: Pseudomonas aeruginosa, VGH843, 18 h, 35° C., read-out: MIC
How it was run: as §1

[18] = system: Pseudomonas aeruginosa VGH 84-4; conditions: 35° C.
How it was run: as §1

[19] = system: Serratia marcescens CMC 83-74; conditions: Serratia marcescens, CMC8374, 18 h, 35° C., read-out: MIC
How it was run: as §1

[20] = system: Serratia marcescens IO 83-63; conditions: IO8363, 18 hours, 35° C.
How it was run: as §1

[21] = system: Serratia marcescens K 84-18; conditions: Serratia marcescens, K8418, 18 h, 35° C., read-out: MIC
How it was run: as §1

[22] = system: Staphylococcus aureus ATTC 29213; conditions: Staphylococcus aureus, ATTC29213, 18 h, 35° C., read-out: MIC
How it was run: as §1

[23] = system: Staphylococcus aureus CMC 83-131; conditions: Staphylococcus aureus, CMC83131, 18 h, 35° C., read-out: MIC
How it was run: as §1

[24] = system: Staphylococcus aureus Smith; conditions: 35° C.
How it was run: as §1

[25] = system: Staphylococcus aureus VGH 84-45; conditions: 35° C.
How it was run: as §1

[26] = system: Staphylococcus aureus VGH 84-47; conditions: Staphylococcus aureus, VGH8447, 18 h, 35° C., read-out: MIC
How it was run: as §1

[27] = system: Streptococcus faecalis CMC 83-120; conditions: Enterococcus faecalis, CMC83120, 18 h, 35° C., read-out: MIC
How it was run: as §1

[28] = system: Streptococcus faecalis UCI 85-19; conditions: Enterococcus faecalis, UCI8519, 18 h, 35° C., read-out: MIC
How it was run: as §1

[29] = system: Streptococcus faecalis VGH 84-65; conditions: Enterococcus faecalis, VGH8465, 18 h, 35° C., read-out: MIC
How it was run: as §1

[30] = system: Streptococcus faecalis VGH 84-69; conditions: Enterococcus faecalis, VGH8469, 18 h, 35° C., read-out: MIC
How it was run: as §1

[31] = system: Enterobacter cloacae MOR 84-30; conditions: 18 hours, 35° C.
How it was run: as §1

SMILES | MIC (Citrobacter div. K 82-24) [µg/mL] | MIC [2] [µg/mL] | MIC [4] [µg/mL] | MIC [5] [µg/mL] | MIC [6] [µg/mL] | MIC [7] [µg/mL] | MIC [8] [µg/mL] | MIC [9] [µg/mL] | MIC [12] [µg/mL] | MIC [13] [µg/mL] | MIC [14] [µg/mL] | MIC [15] [µg/mL] | MIC [16] [µg/mL] | MIC [17] [µg/mL] | MIC [19] [µg/mL] | MIC [20] [µg/mL] | MIC [21] [µg/mL] | MIC [23] [µg/mL] | MIC [26] [µg/mL] | MIC [27] [µg/mL] | other results
O=C(O)c1cn(C2CC2)c2cc(N3CCNC(CF)C3)c(F)cc2c1=O (stereo not drawn) [Example 131, 1-Cyclopropyl-6-fluoro-7-[3-(fluoromethyl)-1-piperazinyl]-1,4-dihydro-4-oxo-3-quinolinecarboxylic acid] | 0.06 (≈ 0.165 µM) | 0.06 (≈ 0.165 µM) | 0.015 (≈ 0.0413 µM) | 0.06 (≈ 0.165 µM) | 0.03 (≈ 0.0826 µM) | 0.03 (≈ 0.0826 µM) | 0.12 (≈ 0.33 µM) | 0.12 (≈ 0.33 µM) | 0.12 (≈ 0.33 µM) | 0.06 (≈ 0.165 µM) | 0.12 (≈ 0.33 µM) | 16 (≈ 44 µM) | 1 (≈ 2.75 µM) | 8 (≈ 22 µM) | 4 (≈ 11 µM) | 0.5 (≈ 1.38 µM) | 0.12 (≈ 0.33 µM) | 1 (≈ 2.75 µM) | 0.25 (≈ 0.688 µM) | 2 (≈ 5.5 µM) | MIC [1]: 0.03 µg/mL (≈ 0.0826 µM); MIC ([3]; Escherichia coli, ATCC25922, 18 h, read-out: MIC): 0.015 µg/mL (≈ 0.0413 µM); MIC (Escherichia coli LL 311): 0.015 µg/mL (≈ 0.0413 µM); MIC ([10]; Morganella morganii, CMC8437, 18 h, read-out: MIC): 0.5 µg/mL (≈ 1.38 µM); MIC ([11]; Morganella morganii, CMC8438, 18 h, read-out: MIC): 0.06 µg/mL (≈ 0.165 µM); MIC ([18]; Pseudomonas aeruginosa, VGH844, 18 h, read-out: MIC): 1 µg/mL (≈ 2.75 µM); MIC [22]: 0.5 µg/mL (≈ 1.38 µM); MIC ([24]; Staphylococcus aureus, 18 h, read-out: MIC): 0.06 µg/mL (≈ 0.165 µM); MIC ([25]; Staphylococcus aureus, VGH8445, 18 h, read-out: MIC): 0.25 µg/mL (≈ 0.688 µM); MIC [28]: 2 µg/mL (≈ 5.5 µM); MIC [29]: 1 µg/mL (≈ 2.75 µM); MIC [30]: 1 µg/mL (≈ 2.75 µM)
O=C(O)c1cn(C2CC2)c2cc(N3CCNC(c4ccco4)C3)c(F)cc2c1=O (stereo not drawn) [Example 62, 1-Cyclopropyl-6-fluoro-7-[3-(2-furanvl)-1-piperazinyl]-1,4-dihydro-4-oxo-3-quinolinecarboxylic acid] | 0.12 (≈ 0.302 µM) | 0.12 (≈ 0.302 µM) | 0.03 (≈ 0.0755 µM) | 0.12 (≈ 0.302 µM) | 0.06 (≈ 0.151 µM) | 0.06 (≈ 0.151 µM) | 0.25 (≈ 0.629 µM) | 0.25 (≈ 0.629 µM) | 0.12 (≈ 0.302 µM) | 0.06 (≈ 0.151 µM) | 0.25 (≈ 0.629 µM) | 16 (≈ 40.3 µM) | 8 (≈ 20.1 µM) | > 16 | 16 (≈ 40.3 µM) | 1 (≈ 2.52 µM) | 0.25 (≈ 0.629 µM) | 0.25 (≈ 0.629 µM) | 0.03 (≈ 0.0755 µM) | 1 (≈ 2.52 µM) | MIC [31]: 1 µg/mL (≈ 2.52 µM); MIC ([3]; 18 hours): 0.03 µg/mL and 0.06 µg/mL; MIC ([10]; 18 hours): 0.06 µg/mL (≈ 0.151 µM); MIC ([11]; 18 hours): 0.25 µg/mL (≈ 0.629 µM); MIC ([18]; 18 hours): 1 µg/mL (≈ 2.52 µM); MIC ([24]; 18 hours): 0.015 µg/mL (≈ 0.0377 µM); MIC ([25]; 18 hours): 0.015 µg/mL (≈ 0.0377 µM); MIC [30]: 0.5 µg/mL (≈ 1.26 µM)
